Columns and labels:
[1] = molecular target: T1, SHIP1 (Mus musculus, UniProt Q9ES52); settings: binds to the same SHIP1 C2 domain as PI(3,4)P2; Ong et al., 2007; cited from earlier work
T1 sequence (Q9ES52 1-1191): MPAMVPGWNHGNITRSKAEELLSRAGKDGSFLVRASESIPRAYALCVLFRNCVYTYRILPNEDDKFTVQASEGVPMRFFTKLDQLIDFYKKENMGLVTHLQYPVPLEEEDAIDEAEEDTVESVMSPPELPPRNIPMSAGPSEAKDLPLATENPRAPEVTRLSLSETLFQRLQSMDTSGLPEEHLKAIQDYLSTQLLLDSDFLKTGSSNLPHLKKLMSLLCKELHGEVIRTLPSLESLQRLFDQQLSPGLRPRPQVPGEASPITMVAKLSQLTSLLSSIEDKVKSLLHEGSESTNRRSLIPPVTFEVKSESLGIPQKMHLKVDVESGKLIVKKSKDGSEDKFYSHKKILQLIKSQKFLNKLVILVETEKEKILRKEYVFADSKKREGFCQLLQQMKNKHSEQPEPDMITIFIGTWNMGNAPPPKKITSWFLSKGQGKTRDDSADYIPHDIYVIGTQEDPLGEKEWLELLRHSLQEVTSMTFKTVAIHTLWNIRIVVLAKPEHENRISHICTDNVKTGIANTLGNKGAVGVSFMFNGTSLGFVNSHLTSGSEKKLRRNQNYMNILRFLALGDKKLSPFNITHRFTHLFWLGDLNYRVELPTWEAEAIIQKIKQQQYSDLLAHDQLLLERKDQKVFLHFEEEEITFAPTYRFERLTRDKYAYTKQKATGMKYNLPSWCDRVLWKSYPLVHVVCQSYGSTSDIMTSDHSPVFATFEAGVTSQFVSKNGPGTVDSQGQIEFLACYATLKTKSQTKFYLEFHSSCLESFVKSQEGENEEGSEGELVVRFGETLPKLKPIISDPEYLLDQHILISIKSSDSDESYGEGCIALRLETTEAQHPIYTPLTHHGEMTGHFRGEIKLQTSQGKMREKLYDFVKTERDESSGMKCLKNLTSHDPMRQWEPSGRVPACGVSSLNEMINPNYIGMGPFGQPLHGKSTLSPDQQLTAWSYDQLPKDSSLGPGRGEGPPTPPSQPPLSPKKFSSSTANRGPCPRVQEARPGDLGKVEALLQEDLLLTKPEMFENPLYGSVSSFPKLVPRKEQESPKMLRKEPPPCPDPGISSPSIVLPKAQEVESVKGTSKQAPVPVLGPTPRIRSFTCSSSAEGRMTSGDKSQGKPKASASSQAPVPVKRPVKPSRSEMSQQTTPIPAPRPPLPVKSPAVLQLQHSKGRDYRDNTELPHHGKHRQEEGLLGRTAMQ

[2] = test system: LPS-induced TNFα; test: Mouse endotoxemia model: serum TNFα after i.p. LPS; assay type: in vivo; settings: 1 h
Description: Mouse Endotoxemia Model. Groups of 6-8 week old BALB/c SHIP1+/+ and SHIP1−/−mice were intraperitoneally injected with either 1 or 5 mg/kg of LPS with or without co-administration of 1 mg/kg of IL10. Blood was drawn 1 hour later by cardiac puncture for determination of plasma cytokine levels by ELISA. ELISA kits were purchased from BD Biosciences (Mississauga, ON) for TNFα.
A role for STAT3 in mediating IL10 inhibition of TNFα in vivo was first described by Takeda et al (Takeda et al., 1999). […] This implies that a protein other than STAT3 might contribute to IL10 action. […] Presently, the ability of IL10 to inhibit LPS-induced inflammatory cytokine/chemokine expression in vivo is shown (FIG. 1A) in SHIP1^+/+ and SHIP1^−/− mice, and found IL10 inhibited TNFα in SHIP1^+/+ but not SHIP1^−/− mice. It was previously shown that SHIP1 phosphatase activity is allosterically stimulated by its product PI(3,4)P2 (Ong et al., 2007). […] Presently, it is shown that compound I-1 inhibits LPS-induced TNFα in SHIP1^+/+ but not SHIP1^−/− mice, showing that these compounds can mimic anti-inflammatory properties of IL10 and is indeed specific for SHIP1 (FIG. 1B).
Data represent means of *p<0.05, **p<0.01 when compared with LPS-alone-stimulated mice, ns=not significant. […] Fractions were collected every 5 min for measurement of TNFα levels Data are representative of two independent experiments.

[3] = test system: DDIT4; test: DDIT4 expression in macrophages; assay type: cell-based; settings: compound by itself
[4] = test system: LPS-stimulated TNFα production in BMDM; test: Continuous flow culture of BMDM, TNFα kinetics; assay type: cell-based, mouse
Description: Production of bone marrow-derived macrophages. Bone marrow-derived macrophages (BMDMs) were generated by first collecting femurs and tibias from mice, and then flushing out the bone marrow through a 26-G needle. Extracted cells were plated, in Mac media supplemented with 5 ng/ml each of CSF-1 and GM-CSF (Stem Cell Technologies, Vancouver, BC), on a 10-cm tissue culture plate for 2 hours at 37° C. Non-adherent cells were collected and replated at 9×10^6 cells per 10-cm tissue culture plate. Cells were then cultured in the presence of CSF-1 and GM-CSF. Differentiated BMDMs were used after 7 to 8 days. All cells were maintained in a 37° C., 5% CO2, 95% humidity incubator.
Continuous Flow Cultures. The continuous flow apparatus facilitates constant stimulation and removal of cell supernatants to determine kinetic profiles of cytokine production over time. BMDMs were seeded at 3×10^6 cells per well in a 24-well tissue culture plate that had been coated with poly-L-lysine (Thermo Fisher Scientific, Nepean, ON) and rinsed with PBS. After overnight incubation, culture media was removed and Leibovitz's L-15 (L-15) media (Invitrogen, Burlington, ON) supplemented with 3% FCS, 10 μM β-mercaptoethanol and 150 μM monothioglycolate was added. Cells were allowed to equilibrate in L-15 media for 1 hour before being placed in the continuous flow apparatus. Stimulation solution was made in the same media equilibrated at 37° C., and was passed through a modified inlet fitted to the well by a syringe pump (New Era Syringe Pumps Inc., Farmingdale, N.Y.). A flow rate of 150 μl per minute was used. At the same time, cell supernatants were removed from the well at the same flow rate, and fractions were collected at 5-minute intervals over the course of 3 hours. These fractions were analyzed for secreted TNFα levels by ELISA.

| Compound | SHIP1 functional activity [1] | LPS-induced TNFα (serum) ([2]; SHIP1+/+ mice) | LPS-induced TNFα (serum) ([2]; SHIP1−/− mice) | DDIT4 expression [3] | TNFα levels ([4]; LPS-stimulated SHIP1+/+ and STAT3+/+ BMDM) | inhibition of 3-hour TNFα peak ([4]; LPS-stimulated STAT3−/− and SHIP1−/− (KO) BMDM) | inhibition of 1-hour TNFα peak ([4]; LPS-stimulated STAT3−/− and SHIP1−/− BMDM) |
| --- | --- | --- | --- | --- | --- | --- | --- |
| Cc1cc(O)cc2c1C1(C)CCC3C(C)(C)CCCC3(C)C1C2 (stereo not drawn) [Compound I-1] | increases SHIP1 functional activity | inhibits | not | – | – | – | – |
| CC12CCC3C(C)(C)C(N)CCC3(C)C1Cc1cc(O)cc(O)c12 (stereo not drawn) [Compound I-2] | – | – | – | by itself able to induce DDIT4 expression | – | – | – |
| IL10: anti-inflammatory cytokine interleukin-10 | – | inhibited | not | – | reduces | partly impaired | completely impaired |
